Assay results taken from US20250042909A1, “POLYMORPH FORMS OF A 5H-PYRROLO[2,3-b]PYRAZINE DERIVATIVE, METHODS OF PREPARATION, AND USES THEREFORE” (BeiGene, Ltd., priority 2022, published 2025).
Counter-ions that a name gives are not always drawn. Blank lines part the entries; values can stand above or below the compound they belong to.

Legend:
[1] = Solid-state chemical and physical stability under stress and storage conditions; assay type: physicochemical; conditions: for Chemical and physical stability: 25° C./92% RH open, 40° C./75% RH open, 60° C. tight container, over 1 week
Procedure: Solid form stability of freeform Type A was investigated in process solvents EtOH/H2O and MeOH/H2O. […] Purity change in all the rest conditions (40° C./75% RH/open for 2 weeks, 60° C./sealed for 10 days, RT/92.5% RH/open for 10 days, 25° C./60% RH/open for 8 weeks and UV (290 wμ/cm2) for 3 days) was less than 0.4 area %. […]

[2] = Pharmacokinetic studies in mice; assay type: in vivo, male CD-1 mice; conditions: for AUC(0-t): male, CD-1, mouse, plasma, read-out: AUC0-24h
Procedure: Compound A free form amorphous (115.7 mg) was prepared by lyophilizing a suspension of compound A free form in water with a minimum amount of acetonitrile.
(§1) Pharmacokinetic studies of Compound A were conducted in male CD-1 mice (Vital River, 8 weeks, 3 animals per dosing route) following Institutional Animal Care and Use Committee guidelines. Intravenous administration was formulated as 0.20 mg/mL solution in N,N-dimethylacetamide:30% solutol HS-15(w/v): saline=20:20:60 (V:V:V). Oral administration was formulated as 1.0 mg/mL suspension in 0.500 methyl cellulose. Blood samples were collected over a 24-h period post-dose. Plasma was isolated and processed with the below protocol: To an aliquot of 10 μL plasma was added 200 μL ACN containing 5 ng/mL terfenadine as internal standard. The mixture was vortexed for 1 m and centrifuged at 4000 rpm for 10 min. An aliquot of 50 μL supernatant was diluted with 150 μL acetonitrile/water. The concentration of Compound A was determined by LC-MS-MS. Non-compartmental pharmacokinetic analysis was performed on the concentration-time data.

[3] = Dynamic vapor sorption (DVS) hygroscopicity test; assay type: physicochemical; conditions: for Hygroscopicity: DVS at 25° C.
Procedure: Dynamic vapor sorption (DVS) analysis was conducted using SMS DVS Intrinsic using one of below methods:
(§2) Sample was weighted to the microbalance. The relative humidity was set to 0% with N2 flow of 200 sccm. The equilibrium was assumed when the weight change of the sample was <0.001 wt % in 10 min or by a maximum equilibration time of 180 minutes. […] Between two equilibrium steps, dm/dt is 0.002%/min. At each equilibrium step, the equilibrium was assumed when the weight change of the sample was <0.001 wt % in 10 min or by a maximum equilibration time of 180 minutes.
as §2, with “the closes decile of ambient humidity” for “0%”
as §2, with “40%” for “0%”, “60” for “10”, “360” for “180”

[4] = Pharmacokinetic studies in rats; assay type: in vivo, male SD rats; conditions: for AUC(0-t): read-out: AUC0-24h
Procedure: as §1, with “male SD rats” for “male CD-1 mice”, “as 1.0” for “as 0.20”, “solutol HS-15(w/v):saline=20:20:60” for “solutol HS-15(w/v): saline=20:20:60”, “in 0.5%” for “in 0.500”, “1 min” for “1 m”

[5] = Solid form stability in process solvents; assay type: physicochemical; conditions: MeOH at 50° C.
Procedure: Solid form stability of freeform Type A was investigated in process solvents EtOH/H2O and MeOH/H2O. […] Purity change in all the rest conditions (40° C./75% RH/open for 2 weeks, 60° C./sealed for 10 days, RT/92.5% RH/open for 10 days, 25° C./60% RH/open for 8 weeks and UV (290 wμ/cm2) for 3 days) was less than 0.4 area %.

[6] = PO Dose 10 mpk calculated as free form, 10 mg/kg
[7] = male, SD, rat, plasma, po, 10 mg/kg, PO Dose 10 mpk calculated as free form

Form conversion on storage ([1]; ambient and open conditions (about 25° C. and about 80% RH) over 1 week): converted to Type A
Compound: Cc1cc(-c2c[nH]c3ncc(-c4cc(C)c5c(c4)CCN(C)C5)nc23)ccc1C(=O)N(C)C [Citrate Type B, 4-[2-(2,8-dimethyl-1,2,3,4-tetrahydroisoquinolin-6-yl)-5H-pyrrolo[2,3-b]pyrazin-7-yl]-N,N,2-trimethylbenzamide]

AUC0-24h [2, 6]: 2990 ng·h/mL
Cmax [2, 6]: 640 ng/mL
F % [2, 6]: 86.9%
t1/2 [2, 6]: 7.95 h
tmax [2, 6]: 1.50 h
Long-term stability ([1]; 3-month experiment): excellent long-term stability
Chemical and physical stability [1]: chemically and physically stable
Form change after the DVS test [3]: No form change
Hygroscopicity ([3]; listed as citrate salt type A): slightly hygroscopic
Water absorbed (DVS) ([3]; from 0% RH to 95% RH at 25° C.): about 0.7%
AUC0-24h [4, 6]: 1603 ng·h/mL
Cmax [4, 6]: 445 ng/mL
F % [4, 6]: 24.4%
tmax [4, 6]: 2.67 h
Compound: Cc1cc(-c2c[nH]c3ncc(-c4cc(C)c5c(c4)CCN(C)C5)nc23)ccc1C(=O)N(C)C [Compound A citrate type A, 4-[2-(2,8-dimethyl-1,2,3,4-tetrahydroisoquinolin-6-yl)-5H-pyrrolo[2,3-b]pyrazin-7-yl]-N,N,2-trimethylbenzamide]

Cmax [2, 6]: 177 ng/mL
F % [2, 6]: 55.2%
t1/2 [2, 6]: 3.63 h
tmax [2, 6]: 3.50 h
AUC(0-t) ([2]; iv, 1 mg/kg, IV Dose 1 mpk calculated as free form): 344 ng·h/mL
AUC(0-t) ([2]; po, 10 mg/kg, PO Dose 10 mpk calculated as free form): 1900 ng·h/mL
half-life ([4]; male, SD, rat, plasma, 10 mg/kg, PO Dose 10 mpk calculated as free form): 4.05 h
AUC(0-t) ([4]; male, SD, rat, plasma, iv, 1 mg/kg, IV Dose 1 mpk calculated as free form): 656 ng·h/mL
bioavailability [4, 7]: 17.2%
AUC(0-t) [4, 7]: 1120 ng·h/mL
Cmax ([4]; male, SD, rat, plasma, po, 10 mg/kg, PO Dose 10 mpk calculated as free form, read-out: Cmax): 235 ng/mL
tmax ([4]; male, SD, rat, plasma, po, 10 mg/kg, PO Dose 10 mpk calculated as free form, read-out: tmax): 2 h
Compound: Cc1cc(-c2c[nH]c3ncc(-c4cc(C)c5c(c4)CCN(C)C5)nc23)ccc1C(=O)N(C)C [Compound A free form amorphous, 4-[2-(2,8-dimethyl-1,2,3,4-tetrahydroisoquinolin-6-yl)-5H-pyrrolo[2,3-b]pyrazin-7-yl]-N,N,2-trimethylbenzamide]

Chemical and physical stability [1]: chemically and physically stable
Form change after the DVS test [3]: No form change
Hygroscopicity ([3]; listed as L-malate salt Pattern A): hygroscopic
Water absorbed (DVS) ([3]; from 40% RH to 95% RH at 25° C.): about 7.9%
Compound: Cc1cc(-c2c[nH]c3ncc(-c4cc(C)c5c(c4)CCN(C)C5)nc23)ccc1C(=O)N(C)C [L-malate salt Type A, 4-[2-(2,8-dimethyl-1,2,3,4-tetrahydroisoquinolin-6-yl)-5H-pyrrolo[2,3-b]pyrazin-7-yl]-N,N,2-trimethylbenzamide]

HPLC area purity change ([1]; 40° C./75% RH/open 2 weeks, 60° C./sealed 10 days, RT/92.5% RH/open 10 days, 25° C./60% RH/open 8 weeks, UV 3 days): less than 0.4 area %
HPLC area purity decrease ([1]; Vis (10000 Lux) for 5 days): ~1.2 area %
Form change (physical stability) ([1]; under the laboratory conditions): No form change
Form change in process solvent [5]: No form change
Compound: Cc1cc(-c2c[nH]c3ncc(-c4cc(C)c5c(c4)CCN(C)C5)nc23)ccc1C(=O)N(C)C [freeform Type A, 4-[2-(2,8-dimethyl-1,2,3,4-tetrahydroisoquinolin-6-yl)-5H-pyrrolo[2,3-b]pyrazin-7-yl]-N,N,2-trimethylbenzamide]
